Assays:
Assay in all cases: Post-emergence test on weeds (greenhouse, spray at 2-3 leaf stage)
Format in all cases: in vivo
Parameters in all cases: key: Level 10: completely dead; Level 9: growth control rate greater than or equal to 90% and less than 100%; Level 8: growth control rate greater than or equal to 80% and less than 90%; Level 7: growth control rate greater than or equal to 70% and less than 80%; Level 6: growth control rate greater than or equal to 60% and less than 70%; Level 5: growth control rate greater than or equal to 50% and less than 60%; Level 4: growth control rate greater than or equal to 40% and less than 50%; Level 3: growth control rate greater than or equal to 30% and less than 40%; Level 2: growth control rate greater than or equal to 20% and less than 30%; Level 1: growth control rate less than 20%; Level 0: no effect
Details in all cases: 60 g a.i./ha, 3 weeks after application
Echinochloa crus-galli = system: Echinochloa crus-galli
Text: (§1) The activity level criteria for plant damage (i.e., growth control rate) are as follows: • Level 10: completely dead; • Level 9: growth control rate greater than or equal to 90% and less than 100%; • Level 8: growth control rate greater than or equal to 80% and less than 90%; • Level 7: growth control rate greater than or equal to 70% and less than 80%; • Level 6: growth control rate greater than or equal to 60% and less than 70%; • Level 5: growth control rate greater than or equal to 50% and less than 60%; • Level 4: growth control rate greater than or equal to 40% and less than 50%; • Level 3: growth control rate greater than or equal to 30% and less than 40%; • Level 2: growth control rate greater than or equal to 20% and less than 30%; • Level 1: growth control rate less than 20%; • Level 0: no effect.
(§2) The above growth control rates are fresh weight control rates.
(§3) Monocotyledonous and dicotyledonous weed seeds (Descurainia sophia, Capsella bursa-pastoris, Abutilon theophrasti, Galium spurium, Stellaria media, Lithospermum arvense, Rorippa indica, Alopecurus aequalis, Alopecurus japonicus, Eleusine indica, Beckmannia syzigachne, Sclerochloa dura, Erigeron canadensis, Phleum paniculatum, Veronica polita, Bromus japonicus, Aegilops tauschii, Phalaris arundinacea, Amaranthus retrofexus, Chenopodium, Commelina communis, Cichorium endivia, Convolvulus arvensis, Cirsium arvense, Solanum nigrum, Acalypha australis, Digitaria sanguinalis, Echinochloa crus-galli, Setaria viridis, Setaa pumila, Lepochloa chinensis, Monochona vaginalis, Sagitta trifolia, Schoenoplectiella juncoides, Cypenus rotundus, Cyperus ira, Cyperus difformis, Fimbristylis, Portulaca oleracea, Xanthium sibiricum, Ipomoea nil, Eschenbachia japonica, etc.) and major crop seeds (wheat, maize, paddy rice, soybean, cotton, oilseed rape, millet, sorghum, potato, sesame, castor plant, etc.) were placed in plastic pots filled with soil and then covered with 0.5-2 cm of soil to allow them to grow in a favorable greenhouse environment. Two weeks after sowing, the test plants were treated at the stage of 2-3 leaves. The test compounds of the present invention were individually dissolved with acetone, then added with Tween® 80, with 1.5 L/ha of methyl oleate emulsifiable concentrate as a synergist, diluted into solutions of certain concentrations using certain amount of water, and sprayed to the plants using a spray tower. After drug application, the experimental results on weeds were collected after 3 weeks of cultivation in a greenhouse. The compounds were applied at 500, 250, […], 15, and 7.5 g a.i./ha in triplicate, and the results were averaged.

Abutilon theophrasti = system: Abutilon theophrasti
Text: as §1, §2, §3

Digitaria sanguinalis = system: Digitaria sanguinalis
Text: as §1, §2, §3

Veronica polita = system: Veronica polita
Text: as §1, §2, §3

Setaria viridis = system: Setaria viridis
Text: as §1, §2, §3

Amaranthus retroflexus = system: Amaranthus retroflexus
Text: as §1, §2, §3

CC1(C(=O)O)ON=C(c2cc(-c3ncc(C(F)(F)F)cc3Cl)c(F)cc2Cl)O1 (stereo not drawn) [Compound 1]
10: activity level (fresh weight growth control rate), Echinochloa crus-galli (Echinochloa crus-galli) | activity level (fresh weight growth control rate), Abutilon theophrasti (Abutilon theophrasti) | activity level (fresh weight growth control rate), Digitaria sanguinalis (Digitaria sanguinalis) | activity level (fresh weight growth control rate), Veronica polita (Veronica polita) | activity level (fresh weight growth control rate), Setaria viridis (Setaria viridis) | activity level (fresh weight growth control rate), Amaranthus retroflexus (Amaranthus retroflexus)

COC(=O)C1ON=C(c2cc(-c3ncc(C(F)(F)F)cc3Cl)c(F)cc2Br)O1 (stereo not drawn) [Compound 2]
10: activity level (fresh weight growth control rate), Echinochloa crus-galli (Echinochloa crus-galli) | activity level (fresh weight growth control rate), Abutilon theophrasti (Abutilon theophrasti) | activity level (fresh weight growth control rate), Digitaria sanguinalis (Digitaria sanguinalis) | activity level (fresh weight growth control rate), Veronica polita (Veronica polita) | activity level (fresh weight growth control rate), Setaria viridis (Setaria viridis) | activity level (fresh weight growth control rate), Amaranthus retroflexus (Amaranthus retroflexus)

COC(=O)C1(C)ON=C(c2cc(-c3ncc(OC(F)F)cc3Cl)c(F)cc2Cl)O1 (stereo not drawn) [Compound 3]
10: activity level (fresh weight growth control rate), Echinochloa crus-galli (Echinochloa crus-galli) | activity level (fresh weight growth control rate), Abutilon theophrasti (Abutilon theophrasti) | activity level (fresh weight growth control rate), Digitaria sanguinalis (Digitaria sanguinalis) | activity level (fresh weight growth control rate), Veronica polita (Veronica polita) | activity level (fresh weight growth control rate), Setaria viridis (Setaria viridis) | activity level (fresh weight growth control rate), Amaranthus retroflexus (Amaranthus retroflexus)

COC(=O)C1(C)ON=C(c2cc(-c3ncc(C(F)(F)F)c(F)c3F)c(F)cc2Cl)O1 (stereo not drawn) [Compound 4]
10: activity level (fresh weight growth control rate), Echinochloa crus-galli (Echinochloa crus-galli) | activity level (fresh weight growth control rate), Abutilon theophrasti (Abutilon theophrasti) | activity level (fresh weight growth control rate), Digitaria sanguinalis (Digitaria sanguinalis) | activity level (fresh weight growth control rate), Veronica polita (Veronica polita) | activity level (fresh weight growth control rate), Setaria viridis (Setaria viridis) | activity level (fresh weight growth control rate), Amaranthus retroflexus (Amaranthus retroflexus)

COC(=O)C1(C)ON=C(c2cc(-c3ncc(Br)cc3Cl)c(F)cc2Cl)O1 (stereo not drawn) [Compound 5]
10: activity level (fresh weight growth control rate), Echinochloa crus-galli (Echinochloa crus-galli) | activity level (fresh weight growth control rate), Abutilon theophrasti (Abutilon theophrasti) | activity level (fresh weight growth control rate), Digitaria sanguinalis (Digitaria sanguinalis) | activity level (fresh weight growth control rate), Veronica polita (Veronica polita) | activity level (fresh weight growth control rate), Setaria viridis (Setaria viridis) | activity level (fresh weight growth control rate), Amaranthus retroflexus (Amaranthus retroflexus)

COC(=O)C1(C)ON=C(c2cc(-c3ncc(C(F)(F)F)cc3F)c(F)cc2Cl)O1 (stereo not drawn) [Compound 6]
10: activity level (fresh weight growth control rate), Echinochloa crus-galli (Echinochloa crus-galli) | activity level (fresh weight growth control rate), Abutilon theophrasti (Abutilon theophrasti) | activity level (fresh weight growth control rate), Digitaria sanguinalis (Digitaria sanguinalis) | activity level (fresh weight growth control rate), Veronica polita (Veronica polita) | activity level (fresh weight growth control rate), Setaria viridis (Setaria viridis) | activity level (fresh weight growth control rate), Amaranthus retroflexus (Amaranthus retroflexus)

COC(=O)C1(C)ON=C(c2cc(-c3ncc(F)cc3F)c(F)cc2Cl)O1 (stereo not drawn) [Compound 7]
10: activity level (fresh weight growth control rate), Echinochloa crus-galli (Echinochloa crus-galli) | activity level (fresh weight growth control rate), Abutilon theophrasti (Abutilon theophrasti) | activity level (fresh weight growth control rate), Digitaria sanguinalis (Digitaria sanguinalis) | activity level (fresh weight growth control rate), Veronica polita (Veronica polita) | activity level (fresh weight growth control rate), Setaria viridis (Setaria viridis) | activity level (fresh weight growth control rate), Amaranthus retroflexus (Amaranthus retroflexus)

COC(=O)C1(C)ON=C(c2cc(-c3ncccc3Cl)c(F)cc2Cl)O1 (stereo not drawn) [Compound 8]
10: activity level (fresh weight growth control rate), Echinochloa crus-galli (Echinochloa crus-galli) | activity level (fresh weight growth control rate), Abutilon theophrasti (Abutilon theophrasti) | activity level (fresh weight growth control rate), Digitaria sanguinalis (Digitaria sanguinalis) | activity level (fresh weight growth control rate), Veronica polita (Veronica polita) | activity level (fresh weight growth control rate), Setaria viridis (Setaria viridis) | activity level (fresh weight growth control rate), Amaranthus retroflexus (Amaranthus retroflexus)

COC(=O)C1(C)ON=C(c2cc(-c3ncc(C(F)(F)F)cc3Cl)c(F)cc2Br)O1 (stereo not drawn) [Compound 9]
10: activity level (fresh weight growth control rate), Echinochloa crus-galli (Echinochloa crus-galli) | activity level (fresh weight growth control rate), Abutilon theophrasti (Abutilon theophrasti) | activity level (fresh weight growth control rate), Digitaria sanguinalis (Digitaria sanguinalis) | activity level (fresh weight growth control rate), Veronica polita (Veronica polita) | activity level (fresh weight growth control rate), Setaria viridis (Setaria viridis) | activity level (fresh weight growth control rate), Amaranthus retroflexus (Amaranthus retroflexus)

COC(=O)C1(C)ON=C(c2cc(-c3ncc(C(C)(F)F)cc3Cl)c(F)cc2Cl)O1 (stereo not drawn) [Compound 10]
10: activity level (fresh weight growth control rate), Echinochloa crus-galli (Echinochloa crus-galli) | activity level (fresh weight growth control rate), Abutilon theophrasti (Abutilon theophrasti) | activity level (fresh weight growth control rate), Digitaria sanguinalis (Digitaria sanguinalis) | activity level (fresh weight growth control rate), Veronica polita (Veronica polita) | activity level (fresh weight growth control rate), Setaria viridis (Setaria viridis) | activity level (fresh weight growth control rate), Amaranthus retroflexus (Amaranthus retroflexus)

COC(=O)C1(C)ON=C(c2cc(-c3ncc(Cl)cc3Cl)c(F)cc2Cl)O1 (stereo not drawn) [Compound 11]
10: activity level (fresh weight growth control rate), Echinochloa crus-galli (Echinochloa crus-galli) | activity level (fresh weight growth control rate), Abutilon theophrasti (Abutilon theophrasti) | activity level (fresh weight growth control rate), Digitaria sanguinalis (Digitaria sanguinalis) | activity level (fresh weight growth control rate), Veronica polita (Veronica polita) | activity level (fresh weight growth control rate), Setaria viridis (Setaria viridis) | activity level (fresh weight growth control rate), Amaranthus retroflexus (Amaranthus retroflexus)

From patent US20250206727A1, “HETEROCYCLIC SUBSTITUTED AROMATIC COMPOUND, PREPARATION METHOD THEREFOR, HERBICIDAL COMPOSITION AND APPLICATION” (QINGDAO KINGAGROOT CHEMICAL COMPOUND CO., LTD., priority 2022, published 2025)
